{"source": "ChEMBL document CHEMBL1268925", "about": "(J Med Chem, 2010)", "molecular_target": "T1, Dihydrofolate reductase (Bacillus anthracis, UniProt Q81R22)", "T1 sequence (Q81R22 whole entry)": "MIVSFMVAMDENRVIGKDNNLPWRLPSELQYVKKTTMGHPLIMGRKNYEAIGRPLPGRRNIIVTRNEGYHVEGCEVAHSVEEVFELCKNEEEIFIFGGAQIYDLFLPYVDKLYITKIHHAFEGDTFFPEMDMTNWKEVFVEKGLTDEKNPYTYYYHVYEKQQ"}
{"smiles": "CCc1nc(N)nc(N)c1C#CCc1cc(OC)ccc1-c1ccccc1", "values": [{"measurement": "IC50", "value": 7.7, "unit": "µM"}, {"measurement": "Ki", "value": 2.59, "unit": "µM"}]}
{"smiles": "COc1cc(C(C)(C)C#Cc2c(C)nc(N)nc2N)cc(OC)c1OC", "values": [{"measurement": "IC50", "value": 12.7, "unit": "µM"}, {"measurement": "Ki", "value": 4.28, "unit": "µM"}]}
